This is an account of results in article PMC10057394, “Exploring the Antitubercular Activity of Anthranilic Acid Derivatives: From MabA (FabG1) Inhibition to Intrabacterial Acidification” (Pharmaceuticals, 2023).

Data set [1] deals with T1, MabA (Mycobacterium tuberculosis, UniProt P9WGT3). The data set is described as follows: MabA LC-MS/MS-based enzymatic assay (reduction of acetoacetyl-CoA into HBCoA). Format: biochemical. The note with it: for IC50: concentration inhibiting 50% of the transformation of acetoacetyl-CoA in HBCoA in the presence of NADPH, LC-MS/MS.
T1 sequence (P9WGT3 whole entry, looked up): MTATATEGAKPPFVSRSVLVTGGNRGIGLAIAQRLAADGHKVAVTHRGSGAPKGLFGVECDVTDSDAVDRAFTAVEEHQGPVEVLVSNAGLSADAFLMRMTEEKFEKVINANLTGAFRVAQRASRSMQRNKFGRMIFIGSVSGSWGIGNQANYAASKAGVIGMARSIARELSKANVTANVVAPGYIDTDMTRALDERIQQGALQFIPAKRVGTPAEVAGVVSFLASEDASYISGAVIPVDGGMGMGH
The subject of data set [2] is GFP-expressing M. tuberculosis H37Rv. Put plainly: microbe, parasite or virus in culture. Format: cell-based. Particulars: Mycobacterium tuberculosis.
Data set [3] has the same test system. Set-up: method as in PMID 32505086. The note with it: Middlebrook 7H9 liquid medium with OADC (contains albumin); 5 days; GFP signal; reported previously; cited from earlier work.
Another data set in a line: LogD octanol/PBS pH 7.4. Particulars: octanol/PBS 1/1, pH 7.4.
Another data set is described as follows: Solubility in PBS pH 7.4. The note with it: PBS pH 7.4, pH 7.4, aqueous buffer, kinetic from dmso stock.
Another data set has as its system plasma proteins. The data set is described as follows: Plasma protein binding by rapid equilibrium dialysis. Particulars: 10% plasma (diluted 1 to 10 in phosphate buffer), pH 7.2. (Equilibrium dialysis compares concentrations on both sides of a semipermeable membrane.)
Data set [4] addresses T1, MabA. Format: binding.
The next data set concerns M. tuberculosis H37Rv. Type of data set: cell-based.
Data set [5] in a line: Solubility in Sauton medium. Format: physicochemical. Particulars: aqueous buffer.
In data set [6] the test system is H37Rv. Type of data set: cell-based, M. tuberculosis.
The subject of data set [7] is H37Rv carrying pUV15-pHGFP. Type of data set: cell-based, M. tuberculosis. Particulars: pH 4.5.
Data set [8] deals with H37Rv. Type of data set: cell-based, M. tuberculosis. This is another data set of the same source.

The structures appear in SMILES notation. Converted amounts (≈) assume the structure as drawn. “Also recorded” adds a separate entry of the source. Like-named read-outs stand apart in the source and are kept apart here. Bounds are passed on as bounds.

For orientation: IC50 means the concentration that gives 50% inhibition. A word on the logD: it is lipophilicity at a set pH, counting ionised and neutral species. Lower therefore signals lower lipophilicity. By solubility is commonly meant the concentration that dissolves in the medium under given conditions. Low values mean little dissolved substance, high ones much dissolved substance. Usually fraction unbound stands for the share of the substance not bound to proteins or other matrix. A lower fraction unbound goes with extensive binding. As for `O=C(Nc1ccc(I)cc1C(=O)O)c1ccc(Cl)c(Cl)c1` [Compound 1, 2-[(3,4-dichlorobenzoyl)amino]-5-iodo-benzoic acid], on MabA [1], the IC50 was determined as 38 ± 6 µM. Moreover, the MIC90 in data set [2] was 300 µM (≈ 131 µg/mL); in [2] (168 h), 100 µM (≈ 43.6 µg/mL); in [3], 300 µM (≈ 131 µg/mL). In “LogD octanol/PBS pH 7.4”, this molecule came in with a logD at 2 h of 3.4. This molecule had a solubility at 24 h in “Solubility in PBS pH 7.4” of more than 200 µM. In the data set on plasma proteins, the fraction unbound at 4 h, 10 µM is 0.0014.

On to `O=C(Nc1ccc(Br)cc1C(=O)O)c1ccc(Cl)c(Cl)c1` [Compound 2, 5-bromo-2-[(3,4-dichlorobenzoyl)amino]benzoic Acid], for which, on MabA [1], the IC50 worked out at 45 µM. The MIC90 in [2] (168 h) is 100 µM (≈ 38.9 µg/mL); in data set [3], 300 µM (≈ 117 µg/mL). The molecule further yielded a logD at 2 h in “LogD octanol/PBS pH 7.4” of 3. This molecule displayed a solubility at 24 h in “Solubility in PBS pH 7.4” of 181 µM (≈ 70.4 µg/mL).

For the molecule `CN(C(=O)c1ccc(Cl)c(Cl)c1)c1ccc(I)cc1C(=O)O` [Compound 3, 2-[(3,4-dichlorobenzoyl)-methyl-amino]-5-iodo-benzoic Acid], the IC50 on MabA [1] is more than 200 µM.

For the molecule `O=C(O)c1cc(I)ccc1NS(=O)(=O)c1ccc(Cl)c(Cl)c1` [Compound 4, 2-[(3,4-dichlorophenyl)sulfonylamino]-5-iodo-benzoic Acid], the IC50 on MabA [1] turned out to be 40 µM.

As to `O=C(O)c1cc(Br)ccc1C(=O)Nc1ccc(Cl)c(Cl)c1` [Compound 5, 5-bromo-2-[(3,4-dichlorophenyl)carbamoyl]benzoic Acid], at MabA [1], the IC50 came to 268 µM.

As to `O=C(O)c1cc(Br)ccc1NC(=S)c1ccc(Cl)c(Cl)c1` [Compound 6, 5-bromo-2-[(3,4-dichlorobenzenecarbothioyl)amino]benzoic Acid], the 50% inhibitory concentration (IC50) on MabA [1] was 39 µM.

Take `O=C(O)c1cc(Br)ccc1-c1nc(-c2ccc(Cl)c(Cl)c2)no1` [Compound 7, 5-bromo-2-[3-(3,4-dichlorophenyl)-1,2,4-oxadiazol-5-yl]benzoic Acid]: the IC50 on MabA [1] was determined as 102 µM.

Take `O=C(Nc1ccc(I)cc1CO)c1ccc(Cl)c(Cl)c1` [Compound 8, 3,4-dichloro-N-[2-(hydroxymethyl)-4-iodo-phenyl]benzamide]: on MabA [1], the IC50 is more than 333 µM.

Regarding `NC(=O)c1cc(I)ccc1NC(=O)c1ccc(Cl)c(Cl)c1` [Compound 9, N-(2-carbamoyl-4-iodo-phenyl)-3,4-dichloro-benzamide], the IC50 on MabA [1] is more than 500 µM.

Turning to `N#Cc1cc(I)ccc1NC(=O)c1ccc(Cl)c(Cl)c1` [Compound 10, 3,4-dichloro-N-(2-cyano-4-iodo-phenyl)benzamide], the IC50 on MabA [1] was more than 1000 µM.

Turning to `O=C(Nc1ccc(I)cc1-c1nnn[nH]1)c1ccc(Cl)c(Cl)c1` [Compound 11, 3,4-dichloro-N-[4-iodo-2-(1H-tetrazol-5-yl)phenyl]benzamide], at MabA [1], the IC50 amounted to 24 µM.

As to `O=C(Nc1ccc(I)cc1C(=O)NS(=O)(=O)C(F)(F)F)c1ccc(Cl)c(Cl)c1` [Compound 12, 3,4-dichloro-N-[4-iodo-2-(trifluoromethylsulfonylcarbamoyl)phenyl]benzamide], the IC50 on MabA [1] was found to be 35 µM. In data set [2] (168 h), this molecule returned an MIC90 of 300 µM (≈ 170 µg/mL). Moreover, the “19F- and 1H-NMR signal in the presence of MabA” value at MabA [4] is listed as “confirmed the direct binding; also recorded: total disappearance of the signal”. In addition, in the data set “LogD octanol/PBS pH 7.4”, the logD at 2 h is 4.1. For the same molecule, the solubility at 24 h in “Solubility in PBS pH 7.4” was determined as 180 µM (≈ 102 µg/mL). In the data set with plasma proteins, this molecule had a fraction unbound at 4 h, 10 µM of 0.0002.

Consider `CS(=O)(=O)NC(=O)c1cc(I)ccc1NC(=O)c1ccc(Cl)c(Cl)c1` [Compound 13, 3,4-dichloro-N-[4-iodo-2-(methylsulfonylcarbamoyl)phenyl]benzamide], for which the IC50 on MabA [1] amounted to 28 µM.

Turning to `O=C(Nc1cc(Br)ccc1C(=O)O)c1ccc(Cl)c(Cl)c1` [Compound 14, 4-bromo-2-[(3,4-dichlorobenzoyl)amino]benzoic Acid], the concentration for half-maximal inhibition (IC50) on MabA [1] amounted to 34 µM.

Consider `O=C(Nc1ccccc1C(=O)O)c1ccc(Cl)c(Cl)c1` [Compound 15, 2-[(3,4-dichlorobenzoyl)amino]benzoic Acid], for which, on MabA [1], the IC50 was more than 1000 µM.

With `O=C(Nc1ccc(C#CC2CC2)cc1C(=O)O)c1ccc(Cl)c(Cl)c1` [Compound 16, 5-(2-cyclopropylethynyl)-2-[(3,4-dichlorobenzoyl)amino]benzoic Acid], the half-inhibitory concentration (IC50) at MabA [1] turned out to be 60 µM. Moreover, the MIC90 in data set [2] (168 h) turned out to be 100 µM (≈ 37.4 µg/mL). Also, the “effect on mycolic acids synthesis (TLC)” value in the data set on M. tuberculosis H37Rv is recorded as “no specific inhibition of mycolic acids”. In addition, the solubility in data set [5] is more than 300 µM. Moreover, the “effect of pH on potency” value in the data set with H37Rv [6] is “decreasing pH improved the potency”. Moreover, the “effect on intrabacterial pH” value in [7] was “dose-dependent decrease in the intrabacterial pH”. Also, the transcriptional response entry in the data set with H37Rv [8] is “downregulation of genes implicated in DNA replication, transcription, translation and growth”. Further, in “Solubility in PBS pH 7.4”, the solubility at 24 h is more than 200 µM. In addition, the fraction unbound at 4 h, 10 µM in the data set on plasma proteins was 0.0006.

Take `C#Cc1ccc(C(=O)O)c(NC(=O)c2ccc(Cl)c(Cl)c2)c1` [Compound 17, 2-[(3,4-dichlorobenzoyl)amino]-4-ethynyl-benzoic Acid]: on MabA [1], the “fold reduction in potency” value worked out at 2 fold and the IC50 was 77 µM.

For `O=C(Nc1cc(-n2cccn2)ccc1C(=O)O)c1ccc(Cl)c(Cl)c1` [Compound 18, 2-[(3,4-dichlorobenzoyl)amino]-4-pyrazol-1-yl-benzoic Acid], on MabA [1], the “improvement of the activity by a factor” value is recorded as 1.6 and the IC50 amounted to 23 µM. In data set [2] (168 h), the MIC90 was 300 µM (≈ 113 µg/mL). Further, the “effect on mycolic acids synthesis (TLC)” value in the data set with M. tuberculosis H37Rv is recorded as “no specific inhibition of mycolic acids”. For the same molecule, the solubility in data set [5] was more than 300 µM. In “LogD octanol/PBS pH 7.4”, this molecule had a logD at 2 h of 2.54. The molecule further showed a solubility at 24 h in “Solubility in PBS pH 7.4” of 149 µM (≈ 56.1 µg/mL). The molecule also registered an unbound share (fraction unbound) at 4 h, 10 µM in the data set with plasma proteins of less than 0.0001.

Consider `O=C(Nc1cc2ccccc2cc1C(=O)O)c1ccc(Cl)c(Cl)c1` [Compound 19, 3-[(3,4-dichlorobenzoyl)amino]naphthalene-2-carboxylic Acid], for which, at MabA [1], the concentration for half-maximal inhibition (IC50) was determined as 33 µM.

Regarding `O=C(Nc1nc2ccccc2cc1C(=O)O)c1ccc(Cl)c(Cl)c1` [Compound 20, 2-[(3,4-dichlorobenzoyl)amino]quinoline-3-carboxylic Acid], at MabA [1], the “fold reduction in potency” value was found to be 2 fold and the IC50 is 76 µM.

Take `CCc1cc(C(N)=S)ccn1` [ethionamide, reference compound]: in data set [2] (168 h), the MIC worked out at 2 µg/mL (≈ 12 µM).

On to `NNC(=O)c1ccncc1` [isoniazid, reference compound], for which the MIC in data set [2] (168 h) stood at 0.125 µg/mL (≈ 0.911 µM). Besides, in the data set on M. tuberculosis H37Rv, the “effect on mycolic acids synthesis (TLC)” value is given as “decrease in mycolic acids synthesis”.

As for `CO[C@H]1/C=C/O[C@@]2(C)Oc3c(C)c(O)c4c(O)c(c(/C=N/N5CCN(C)CC5)c(O)c4c3C2=O)NC(=O)/C(C)=C\C=C\[C@H](C)[C@H](O)[C@@H](C)[C@@H](O)[C@@H](C)[C@H](OC(C)=O)[C@@H]1C` [rifampicine, reference compound], the MIC in data set [2] (168 h) was determined as 0.004 µg/mL (≈ 0.00486 µM).
